Data taken from patent publication US7608640B2, “Glycine betaine and its use” (priority 2001, dated 2009).

What was measured:
[1] = system: blood cells; test: Blood cell counts; type: in vivo, rat
[2] = system: coagulation factors; test: Biological balance (Quick time, ACT, fibrinogen, α2AP, AT III); type: in vivo, rat
[3] = system: bleeding time in rats; test: Induced haemorrhagic (bleeding) time, tail cut; type: in vivo, rat
Method: Induced Haemorrahgic Time IHT
(E. Dejana. Bleeding time in rats. Thrombosis. Rech. 1982) Blood samples are made before the test. The tail of anaesthetised rat, is dipped for 5 minutes in a water bath at 37° C. so as to provoke a dilatation of the peripheral vessels which are removed and cut at the end, the chronometer being started. The IHT is defined as being the time period comprised between the cutting of end tail and the end of the haemorrhage or bleeding. The end of haemorrhage is defined as the time where the last drop of blood is removed from the tail and no other drop is seen for 180 seconds. […]

[4] = system: platelet aggregation; test: Whole blood platelet aggregation ex vivo (aggregometer); type: in vivo, rat; details: after laser firings
Method: The aggregation is made in accordance to the methods of Cardinal & Flower. Pharmacol. Method. 1980, and to American Journal of Clinical Pathology, 1989; 92: 676-679, Sureney. J D. Whole Blood aggregometry. After a keeping period of 8 days, the rats are subjected to a fasting for 12 hours. […] The rats are then anaesthetised with sodium Thiopental administered at a dose of 200 mg/Kg and the blood samples are taken by intracardiac puncture on a trisodium citrate solution (1 volume of solution at 3.8% citrate for 9 volumes of blood).

[5] = system: arterial thrombosis induced by laser beam in the mesenteric microcirculation of the rat; test: Laser-induced thrombosis in the mesenteric microcirculation; type: in vivo
Excerpt: A/Principle of Laser-induced Thrombosis (Seiffge D. et al., 1989; Weichter W. et al., 1983).
In this model, lesion of the vascular wall is induced by a laser beam. This beam causes a limited lesion of the vascular endothelium (only 1 to 2 cells are destroyed). This laying bare of the sub-endothelium, which is a thrombogenetic surface, results in the adherence of platelets via […]. This adherence of platelets is followed by the activation thereof. They form pseudopods and secrete the content of their granules. This activation results in the appearance of glycoproteins IIb-IIIa which are necessary for the aggregation of the platelets between them. This lesion is induced in the mesenteric microcirculation of the rat. It is immediately followed by the formation of a thrombus (in a few seconds). This thrombus, which rapidly enlarges under the influence of the flow of blood, embolises before being formed again.
By this manes, the assessment of the effect of glycine betaine was conducted pharmacologically in conjunction with the study of two active molecules used as a reference; namely acetylsalicylic acid and heparin (of low molecular weight). The assessment also involved the activity of glycine betaine in relation to the prothrombotic effects induced by contrasting products.
Male Wistar rats were used for these tests. They weighed between 200 and 250 grams. After an 8-day stabilisation period, the rats were subjected to fasting for 12 hours. They were then anaesthetised, glycine betaine was administered subcutaneously, and the mesentery (laser) or vena cava (stasis) was opened at the end of the experiments.

[6] = rat, glycine betaine 5 mg/kg, acetylsalicylic acid 100 mg/kg, heparin 2 mg/kg
[7] = rat, after laser firings, glycine betaine 5 mg/kg, acetylsalicylic acid 100 mg/kg, heparin 2 mg/kg
[8] = contrasting products alone or with glycine betaine 5 mg/kg
[9] = after laser firings and administration of contrasting products, alone or with glycine betaine 5 mg/kg

Q: For `CC(=O)Oc1ccccc1C(=O)O` [Acetylsalicylic acid], which Number of platelets [1, 6] is on record?
A: The Number of platelets was 855.33 ± 63.17 10^9.

Q: What about the “Number of red corpuscles” value [1, 6] of the same molecule?
A: The value was 6.15 ± 0.31 10^12.

Q: What about the “Number of white corpuscles” value [1, 6] of the same molecule?
A: Its value is 4.33 ± 1.00 10^9.

Q: And the “ACT (Activated cephaline time)” value [2, 6]?
A: The value was 27.26 ± 1.1 s.

Q: What about the “AT III (Antithrombin III)” value [2, 6] of the same molecule?
A: The value was 85.33 ± 3.51%.

Q: And the Fibrinogen [2, 6]?
A: Its Fibrinogen is 2.19 ± 0.33 g/L.

Q: What about the “QT (Quick time)” value [2, 6] of the same molecule?
A: The value was 18.33 ± 2.08 s.

Q: And the “α2AP (Alpha,2-antiplasmin)” value [2, 6]?
A: Its value is 29.36 ± 0.92%.

Q: And the Bleeding time [3, 6]?
A: The Bleeding time was 276.67 ± 20.82 s.

Q: And the “Amplitude (platelet aggregation)” value [4, 6]?
A: The value was 2.33 ± 2.08 ohms.

Q: What about the “Velocity (platelet aggregation)” value [4, 6] of the same molecule?
A: The value was 2 ± 1 ohms/min.

Q: And the Duration of embolisation [5, 7]?
A: Its Duration of embolisation is 0.33 ± 0.58 min.

Q: And the “Number of emboles or embolies” value [5, 7]?
A: Its value is 1 ± 1.

Q: With `C[C@H](O)C(=O)Nc1c(I)c(C(=O)NC(CO)CO)c(I)c(C(=O)NC(CO)CO)c1I` [Iopamidol ®, Iopamidol] as the molecule, how does the Number of platelets [1, 8] read?
A: Its Number of platelets is 585.67 ± 23.54 10^9.

Q: What about the “ACT (Activated cephaline time)” value [2, 8] of the same molecule?
A: Its value is 41.33 ± 0.8 s.

Q: What about the “AT III (Antithrombin III)” value [2, 8] of the same molecule?
A: The value was 70.6 ± 1.51%.

Q: And the Fibrinogen [2, 8]?
A: The Fibrinogen was 1.5 ± 0.8 g/L.

Q: And the “QT (Quick time)” value [2, 8]?
A: Its value is 28.1 ± 0.75 s.

Q: What about the “α2AP (Alpha,2-antiplasmin)” value [2, 8] of the same molecule?
A: Its value is 25.23 ± 0.95%.

Q: And the “IBD (induced bleeding time)” value [3, 8]?
A: The value was 128 ± 7.64 s.

Q: And the “Amplitude (platelet aggregation)” value [4, 8]?
A: Its value is 15 ± 2.64 ohm.

Q: What about the “Velocity (platelet aggregation)” value [4, 8] of the same molecule?
A: Its value is 12.33 ± 0.50 ohm/min.

Q: What about the Duration of embolisation [5, 9] of the same molecule?
A: Its Duration of embolisation is 6.33 ± 0.52 min.

Q: What about the Number of emboles [5, 9] of the same molecule?
A: Its Number of emboles is 11.67 ± 0.50.
